Columns and labels:
[1] = target: T1, XIAP Bir3-RING (GST-BIR 3RING) (Homo sapiens, UniProt P98170); experiment: Caspase de-repression assay using cellular extracts (apoptosome), XIAP Bir3-RING; type: biochemical; conditions: 293 cell S100 extract
T1 construct: made in house; host or cells: E. coli DH5-alpha
Experimental: (§1) 100 ug of 293 cell S100 extract and 0.25 uM-2 uM of GST-Xiap fusion protein (GST-BIR 3RING, GST-linker BIR2 BIR3RING) were co-incubated with serial dilutions of compound (0.02 uM-40 uM). Extracts were activated by adding 1 mM dATP, 0.1 mM ALLN, 133 ug Cytochrome C (final concentrations), and incubating at 37° C. for 25 minutes. All reactions and dilutions used S100 buffer (50 mM Pipes pH 7.0, 50 mM KCl, 0.5 mM EGTA pH 8.0, 2 mM MgCl2 supplemented with 1/1000 dilutions of 2 mg/ml Cytochalisin B, 2, mg/ml Chymotstatin, Leupeptin, Pepstatin, Antipain, 0.1M PMSF, 1M DTT). Final reaction volume was 30 ul. Caspase-3 activity was measured by overlaying 30 ul of a 0.4 mM DEVD-AMC solution. AMC cleavage was measured in a TECAN spectrophotometer at 360 nm excitation and 444 nm emission, on a kinetic cycle of 1 hour with readings taken every 5 minutes. Caspase activity was calculated as Vo of AMC fluorescence/sec. Caspase de-repression by our compounds were compared to fully activated extract and activated extract repressed by the presence of XIAP fusion protein.
(§2) Results: Compounds were also tested in the apoptosome assay and the linker-BIR2/caspase-3 inhibition assay and found to have IC50s in the following ranges: A: >10 μM; B: <10 μM; C: <1 μM, as shown in Table 7.

[2] = target: T2, caspase-3 inhibited by linker BIR2-BIR3-RING of XIAP (Homo sapiens, UniProt P98170); experiment: Caspase-3 linker-BIR2-BIR3-RING derepression assay; type: biochemical
T2 construct: made in house; host or cells: E. coli DH5-alpha (GST-XIAP); E. coli AD494 (His-caspase-3)
T2 sequence (P98170 93-497): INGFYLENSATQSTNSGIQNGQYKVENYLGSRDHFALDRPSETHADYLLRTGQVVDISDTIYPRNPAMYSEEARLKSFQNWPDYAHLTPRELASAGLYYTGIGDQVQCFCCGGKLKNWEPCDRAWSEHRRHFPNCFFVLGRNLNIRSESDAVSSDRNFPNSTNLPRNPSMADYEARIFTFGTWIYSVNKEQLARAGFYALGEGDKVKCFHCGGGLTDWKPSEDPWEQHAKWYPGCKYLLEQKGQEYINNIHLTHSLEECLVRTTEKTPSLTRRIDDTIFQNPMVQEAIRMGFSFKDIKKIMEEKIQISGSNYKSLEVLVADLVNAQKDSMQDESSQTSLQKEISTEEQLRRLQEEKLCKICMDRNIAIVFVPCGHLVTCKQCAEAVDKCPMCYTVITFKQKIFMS
Experimental: In order to determine the relative activity of the selected compound against BIR2, an in vitro assay was used where caspase-3 was inhibited by linker-BIR2 or linker BIR2-BIR3-RING of XIAP. Briefly, 1.5 ul of the enzyme, 0.25 uM to 2 uM of GST-Xiap fusion protein (GST-linker BIR2, GST-linker BIR2BIR3RING) were co-incubated with serial dilutions of compound (80 uM-0.04 uM). Caspase 3 activity was measured by overlaying 25 ul of a 0.4 mM DEVD-AMC solution. Final reaction volume was 100 ul. All dilutions were performed in caspase buffer (50 mM Hepes pH 7.4, 100 mM NaCl, 10% sucrose, 1 mM EDTA, 10 mM DTT, 0.1% CHAPS (Stennicke, H. R., and Salvesen, G. S. (1997). Biochemical characteristics of caspase-3, -6, -7, and -8. J. Biol. Chem. 272, 25719-25723)).
The fluorescent AMC released from the caspase-3 hydrolysis of the substrate was measured in a TECAN spectrophotometer at 360 nm excitation and 444 nm emission, on a kinetic cycle of 30 minutes with readings taken every 2 minutes. Caspase activity was calculated as Vo of AMC fluorescence/sec. Caspase de-repression by our compounds were compared to caspase-3 alone and caspase 3 repressed by the presence of XIAP fusion protein.
as §2

GST-HIAP2 (cIAP-1) BIR 3 = target: T3, GST-HIAP2 (cIAP-1) BIR 3 (Homo sapiens, UniProt Q13490); experiment: Fluorescence polarization-based competition assay, cIAP-1 Bir3; type: binding
T3 construct: made in house; host or cells: E. coli DH5-alpha
T3 sequence (Q13490 251-363): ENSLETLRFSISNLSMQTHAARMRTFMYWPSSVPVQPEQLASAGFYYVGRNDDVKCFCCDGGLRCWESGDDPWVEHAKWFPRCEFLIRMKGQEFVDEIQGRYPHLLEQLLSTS
Experimental: GST-HIAP2 (cIAP-1) BIR 3: HIAP2 coding sequence from amino acids 251-363 cloned into PGex4T3 via BamH1 and XhoI. The plasmid was transformed into E. coli DH5α for use in protein expression and purification.
(§3) A fluorescent peptide probe, Fmoc-Ala-Val-Pro-Phe-Tyr(t-Bu)-Leu-Pro-Gly(t-Bu)-Gly-OH was prepared using standard Fmoc chemistry on 2-chlorotrityl chloride resin (Int. J. Pept. Prot. Res. 38:555-561, 1991). Cleavage from the resin was performed using 20% acetic acid in dichloromethane (DCM), which left the side chain still blocked. The C-terminal protected carboxylic acid was coupled to 4′-(aminomethyl)fluorescein (Molecular Probes, A-1351; Eugene, Oreg.) using excess diisopropylcarbodiimide (DIC) in dimethylformamide (DMF) at room temperature and was purified by silica gel chromatography (10% methanol in DCM). The N-terminal Fmoc protecting group was removed using piperidine (20%) in DMF, and purified by silica gel chromatography (20% methanol in DCM, 0.5% HOAc). Finally, the t-butyl side chain protective groups were removed using 95% trifluoroacetic acid containing 2.5% water and 2.5% triisopropyl silane. […] Compound #174 was also used as a fluorescent probe in this assay.
(§4) For all assays, the fluorescence and fluorescence-polarization was evaluated using a Tecan Polarion instrument with the excitation filter set at 485 nm and the emission filter set at 535 nm. For each assay, the concentration of the target protein was first establish by titration of the selected protein in order to produce a linear dose-response signal when incubated alone in the presence of the fluorescent probe. Upon establishing these conditions, the compounds potency (IC50) and selectivity, was assessed in the presence of a fix defined-amount of target protein and fluorescent probe and a 10 point serial dilution of the selected compounds. For each IC50 curve, the assays were run as followed: 25 ul/well of diluted compound in 50 mM MES buffer pH 6.5 were added into a black 96 well plate then 25 ul/well of bovine serum albumin (BSA) at 0.5 mg/ml in 50 mM MES pH 6.5. Auto-fluorescence for each compound was first assessed by performing a reading of the compound/BSA solution alone. Then 25 ul of the fluorescein probe diluted into 50 mM MES containing 0.05 mg/ml BSA were added and a reading to detect quenching of fluorescein signal done. Finally 25 ul/well of the target or control protein (GST-BIRs) diluted at the appropriate concentration in 50 mM MES containing 0.05 mg/ml BSA were added and the fluorescence polarization evaluated.
(§5) For each assay the relative polarization-fluorescence units were plotted against the final concentrations of compound and the IC50 calculated using the Grad pad prism software and/or Cambridge soft. The ki value were derived from the calculated IC50 value as described above and according to the equation described in Nikolovska-Coleska, Z. (2004) Anal Biochem 332, 261-273.
(§6) Compounds exemplified in Table 6 were tested and found to have IC50s in the following ranges: A: >10 μM; B: <10 μM; C: <1 μM using the fluorescence polarization assay, as shown in Table 5. Each of the IC50s was calculated from Graph Pad.

GST-XIAP BIR3RING = target: T4, GST-XIAP BIR3RING (Homo sapiens, UniProt P98170); experiment: Fluorescence polarization-based competition assay, XIAP Bir3-RING; type: binding
T4 construct: made in house; host or cells: E. coli DH5-alpha
T4 sequence (P98170 246-497): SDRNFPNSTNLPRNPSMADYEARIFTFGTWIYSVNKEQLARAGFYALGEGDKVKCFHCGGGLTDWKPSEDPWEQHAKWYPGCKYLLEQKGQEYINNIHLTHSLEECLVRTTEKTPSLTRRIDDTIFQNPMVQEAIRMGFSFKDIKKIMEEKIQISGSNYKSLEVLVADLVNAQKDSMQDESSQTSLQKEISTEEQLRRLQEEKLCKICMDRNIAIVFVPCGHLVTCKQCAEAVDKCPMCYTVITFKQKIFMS
Experimental: GST-XIAP BIR3RING: XIAP coding sequence amino acids 246-497 cloned into PGEX2T1 via BamH1 and AVA I. The plasmid was transformed into E. coli DH5α for use in protein expression and purification.
as §3, §4, §5, §6

GST-HIAP1(cIAP-2) BIR 3 = target: T5, GST-HIAP1(cIAP-2) BIR 3 (Homo sapiens, UniProt Q13489); experiment: Fluorescence polarization-based competition assay, cIAP-2 Bir3; type: binding
T5 construct: made in house; host or cells: E. coli DH5-alpha
T5 sequence (Q13489 236-349): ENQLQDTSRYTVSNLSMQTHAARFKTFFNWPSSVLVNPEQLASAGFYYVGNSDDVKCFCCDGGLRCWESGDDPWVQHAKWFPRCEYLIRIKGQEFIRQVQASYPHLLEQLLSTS
Experimental: GST-HIAP1(cIAP-2) BIR 3: HIAP1 coding sequence from amino acids 236-349, cloned into PGex4T3 via BamH1 and XhoI. The plasmid was transformed into E. coli DH5α for use in protein expression and purification.
as §3, §4, §5, §6

[3] = target: T6, XIAP Bir2-Bir3-RING (GST-linker BIR2 BIR3RING) (Homo sapiens, UniProt P98170); experiment: Caspase de-repression assay using cellular extracts (apoptosome), XIAP Bir2-Bir3-RING; type: biochemical; conditions: 293 cell S100 extract
T6 construct: made in house; host or cells: E. coli DH5-alpha
T6 sequence (P98170 93-497): as the sequence (P98170 93-497) above
Experimental: as §1, §2

MDA-MB-231 cells = experiment: Survival assay (MTS) on MDA-MB-231 cells; type: cell-based; conditions: Homo sapiens, 72 hours, read-out: EC50 MDA-MB-231 breast derived cell line
Experimental: MDA-MD-231 (breast) and H460 (lung) cancer cells were cultured in RPMI1640 media supplemented with 10% FBS and 100 units/mL of Penicillin and Steptomycin.
Survival assays were routinely done on MDA-MB-231 and H460 cells. Cells were seeded in 96 well plates at a respective density of 5000 and 2000 cells per well and incubated at 37° C. in presence of 5% CO2 for 24 hours. Selected compounds were diluted into the media at various concentration ranging from 0.01 uM up to 100 uM. Diluted compounds were added onto the MDA-MB-231 cells. For H460 cells, the compounds were added either alone or in presence of 3 ng/ml of TRAIL. After 72 hours cellular viability was evaluated by MTS based assays. A solution of [3-(4,5-dimethylthiazol-2-yl)-5-(3-carboxymethoxyphenyl)-2-(4-sulfophenyl)-2H-tetrazolium, inner salt; MTS] was added onto cells for a period of 1 to 4 hours. Upon incubation the amount of converted MTS was evaluated using a Tecan spectrophotometer set at 570 nm.

T1 sequence (P98170 246-497): as the sequence (P98170 246-497) above

Row | Structure (SMILES) | IC50 [1] [nM] | IC50 [2] [nM] | IC50 (GST-HIAP2 (cIAP-1) BIR 3) [nM] | IC50 (GST-XIAP BIR3RING) [nM] | IC50 (GST-HIAP1(cIAP-2) BIR 3) [nM] | IC50 [3] [nM] | EC50 (MDA-MB-231 cells) [nM]
1 | CC(C)[C@H](NC(=O)[C@H](C)N)C(=O)N1CCC[C@H]1CN(CCc1ccccc1)C(=O)OCc1ccccc1 [Compound 15] | < 10000 | > 10000 | < 1000 | < 1000 | < 1000 | > 10000 | 
2 | CC(C)[C@H](NC(=O)[C@H](C)N)C(=O)N1CCC[C@H]1CN(CCc1ccccc1)S(C)(=O)=O [Compound 17] | < 1000 | > 10000 | < 1000 | < 10000 | < 1000 | > 10000 | 
3 | CC(C)[C@H](NC(=O)[C@H](C)N)C(=O)N1CCC[C@H]1CNCCc1ccccc1 [Compound 18] | < 1000 | > 10000 | < 1000 | < 1000 | < 1000 | > 10000 | 
4 | CC(=O)N(CCc1ccccc1)C[C@@H]1CCCN1C(=O)[C@@H](NC(=O)[C@H](C)N)C(C)C [Compound 19] | < 1000 | > 10000 | < 1000 | < 1000 | < 1000 | > 10000 | 
5 | CC(C)[C@H](NC(=O)[C@H](C)N)C(=O)N1CCC[C@H]1CN(CCc1ccccc1)C(=O)C(F)(F)F [Compound 20] | < 1000 | > 10000 | < 1000 | < 1000 | < 1000 | > 10000 | 
6 | CC(C)[C@H](NC(=O)[C@H](C)N)C(=O)N1CCC[C@H]1CN(CCc1ccccc1)C(=O)CCc1ccccc1 [Compound 21] | < 1000 | > 10000 | < 1000 | < 1000 | < 1000 | > 10000 | 
7 | CCCC(=O)N(CCc1ccccc1)C[C@@H]1CCCN1C(=O)[C@@H](NC(=O)[C@H](C)N)C(C)C [Compound 22] | < 1000 | > 10000 | < 1000 | < 1000 | < 1000 | > 10000 | 
8 | CC(C)[C@H](NC(=O)[C@H](C)N)C(=O)N1CCC[C@H]1CN(CCc1ccccc1)C(=O)Cc1ccccc1 [Compound 23] | < 1000 | > 10000 | < 1000 | < 1000 | < 1000 | > 10000 | 
9 | CN[C@@H](C)C(=O)N[C@H](C(=O)N1CCC[C@H]1CN(CCc1ccccc1)C(=O)CCc1ccccc1)C(C)(C)C [Compound 27] | < 1000 | > 10000 | < 1000 | < 1000 | < 1000 | < 10000 | 
10 | CC(C)[C@H](NC(=O)[C@H](C)N)C(=O)N1CCC[C@H]1CN(CCCCO)CCc1ccccc1 [Compound 29] | < 1000 | > 10000 | < 1000 | < 10000 | < 1000 | < 10000 | 
11 | CC(C)[C@H](NC(=O)[C@H](C)N)C(=O)N1CCC[C@H]1CN(CCc1ccccc1)C(=O)CN [Compound 30] | < 1000 | > 10000 | < 1000 | < 1000 | < 1000 | > 10000 | 
12 | CC(C)[C@H](NC(=O)[C@H](C)N)C(=O)N1CCC[C@H]1CN(CCc1ccccc1)C(=O)CCCc1ccccc1 [Compound 31] | < 1000 | > 10000 | < 1000 | < 1000 | < 1000 | > 10000 | 
13 | CN[C@@H](C)C(=O)N[C@H](C(=O)N1CCC[C@H]1CN(CCc1ccccc1)C(=O)[C@H](N)Cc1ccccc1)C(C)(C)C [Compound 42] |  |  | < 1000 | < 1000 | < 1000 |  | < 5000
14 | CN[C@@H](C)C(=O)N[C@H](C(=O)N1CCC[C@H]1CN(CCc1ccccc1)C(=O)[C@@H](N)Cc1ccccc1)C(C)(C)C [Compound 44] |  |  | < 1000 | < 10000 | < 1000 |  | < 5000
15 | CN[C@@H](C)C(=O)N[C@H](C(=O)N1CCC[C@H]1CN(CCc1ccccc1)C(=O)c1ccc(F)cc1)C(C)(C)C [Compound 75] |  |  |  |  |  |  | < 5000
16 | CN[C@@H](C)C(=O)N[C@@H](CCc1ccccc1)C(=O)N1CCC[C@H]1CN(CCc1ccccc1)C(=O)[C@H](N)Cc1ccc(OC)cc1 [Compound 84] |  |  |  |  |  |  | < 5000
17 | CN[C@@H](C)C(=O)N[C@@H](CCc1ccccc1)C(=O)N1CCC[C@H]1CN(CCc1ccccc1)C(=O)[C@H](N)Cc1ccccc1 [Compound 89] |  |  |  |  |  |  | < 5000
